Measurements published in patent US10689354B2, “Aminoazole derivative” (Teijin Pharma Limited, priority 2015, dated 2020).

Legend:
[1] = target: T1, androgen receptor (AR-LBD) (Rattus norvegicus, UniProt P15207); assay: Evaluation of androgen receptor affinity (PolarScreen Androgen Receptor Competitor Assay Kit, Red; fluorescence polarization); conditions: 22° C. for 5 hours, relative to binding rate of 1 μM DHT, read-out: AR affinity (pEC50) (converted)
T1 construct: 5 μL of 2×AR-LBD/Fluoromone AL Red Complex contained in the kit; purchased Invitrogen
T1 sequence (P15207 651-882 limits assumed): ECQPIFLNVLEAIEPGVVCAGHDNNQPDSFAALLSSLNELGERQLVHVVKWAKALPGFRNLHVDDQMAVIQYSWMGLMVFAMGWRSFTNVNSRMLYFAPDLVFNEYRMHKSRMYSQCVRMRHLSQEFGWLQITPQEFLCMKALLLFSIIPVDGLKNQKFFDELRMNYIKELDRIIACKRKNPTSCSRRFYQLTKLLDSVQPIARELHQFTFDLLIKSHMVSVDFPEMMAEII
How it was run: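 Test compound and the 2× AR-LBD/Fluoromone AL Red complex were combined in duplicate wells. After reacting 5 h at 22° C, polarization was measured. pEC50 was derived by 4-parameter fitting, normalizing to binding obtained with 1 μM dihydrotestosterone.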

[2] = target: T2, human androgen receptor (Homo sapiens, UniProt P10275); assay: Reporter assay of an androgen receptor responsive sequence (luciferase, transiently transfected HEK293 cells); type: cell-based; conditions: 24 hours incubation, relative to activity of 100 nM DHT, read-out: AR transcriptive activity (pEC50) (converted)
T2 construct: expressed in transfected cells; host or cells: HEK293
T2 sequence (P10275 1-920): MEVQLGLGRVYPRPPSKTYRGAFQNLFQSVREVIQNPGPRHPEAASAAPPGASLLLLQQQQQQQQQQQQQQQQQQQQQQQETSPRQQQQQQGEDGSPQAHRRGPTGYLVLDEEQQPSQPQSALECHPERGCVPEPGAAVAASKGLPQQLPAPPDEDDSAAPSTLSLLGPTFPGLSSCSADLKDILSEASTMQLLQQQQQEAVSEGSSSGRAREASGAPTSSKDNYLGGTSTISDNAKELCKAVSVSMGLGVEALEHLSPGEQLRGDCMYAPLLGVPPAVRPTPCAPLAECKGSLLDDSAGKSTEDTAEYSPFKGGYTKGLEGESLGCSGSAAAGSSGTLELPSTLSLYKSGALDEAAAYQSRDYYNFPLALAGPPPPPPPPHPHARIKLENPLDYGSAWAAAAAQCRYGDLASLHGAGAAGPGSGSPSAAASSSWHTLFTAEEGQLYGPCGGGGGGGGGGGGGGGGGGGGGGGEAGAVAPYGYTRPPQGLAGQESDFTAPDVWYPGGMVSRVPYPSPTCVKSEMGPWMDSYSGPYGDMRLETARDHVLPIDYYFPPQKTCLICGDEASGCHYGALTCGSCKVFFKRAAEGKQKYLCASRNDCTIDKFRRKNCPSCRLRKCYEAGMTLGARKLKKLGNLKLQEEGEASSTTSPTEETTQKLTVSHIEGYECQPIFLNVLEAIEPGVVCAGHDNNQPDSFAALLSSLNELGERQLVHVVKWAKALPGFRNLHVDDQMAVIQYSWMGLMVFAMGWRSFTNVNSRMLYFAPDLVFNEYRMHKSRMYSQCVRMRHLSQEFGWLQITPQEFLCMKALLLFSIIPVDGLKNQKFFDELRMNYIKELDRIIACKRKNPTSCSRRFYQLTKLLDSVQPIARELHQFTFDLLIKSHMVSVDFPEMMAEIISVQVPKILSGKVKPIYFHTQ
How it was run: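 Agonism scored as pEC50, fitted by 4-parameter curve against the response to 100 nM DHT, from dual-luciferase readout after 24 h compound treatment. Cells were HEK293 co-transfected (3 h) with human AR expression vector, androgen-responsive firefly reporter and Renilla control, in charcoal-stripped serum.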

CCc1oc(N(Cc2ccc(C(F)(F)F)cn2)c2ccc(C#N)cc2)nc1C(=O)NS(C)(=O)=O [Compound 638, 2-[4-cyano-N-[[5-(trifluoromethyl)-2-pyridyl]methyl]anilino]-5-ethyl-N-methylsulfonyl-oxazole-4-carboxamide]
EC50 [1]: 0.2 µM
EC50 [2]: 3.16 µM

Cc1oc(N(CC[C@@H]2CCCC[C@H]2O)c2ccc(C#N)cc2)nc1C(=O)NS(C)(=O)=O (racemic) [Compound 624, 2-[4-cyano-N-[2-[trans-2-hydroxycyclohexyl]ethyl]anilino]-5-methyl-N-methylsulfonyl-oxazole-4-carboxamide]
EC50 [1]: 0.794 µM
EC50 [2]: 7.94 µM

Cc1sc(N(Cc2ccc(OC(F)F)cc2F)c2ccc(C#N)cc2)nc1C(=O)NS(C)(=O)=O [Compound 522, 2-[4-cyano-N-[[4-(difluoromethoxy)-2-fluoro-phenyl]methyl]anilino]-5-methyl-N-methylsulfonyl-thiazole-4-carboxamide]
EC50 [1]: 0.0251 µM
EC50 [2]: 0.251 µM

Cc1sc(N(CCC2CCCCC2)Cc2ccc(OC(F)(F)F)cc2)nc1C(=O)NS(=O)(=O)C1CC1 [Compound 734, 2-[2-cyclohexylethyl-[[4-(trifluoromethoxy)phenyl]methyl]amino]-N-cyclopropylsulfonyl-5-methyl-thiazole-4-carboxamide]
EC50 [1]: 1 µM
EC50 [2]: > 10 µM

Cc1sc(N(Cc2ccc(OCc3ccncc3)cc2)c2ccc(C#N)cc2)nc1C(=O)NS(C)(=O)=O [Compound 571, 2-[4-cyano-N-[[4-(4-pyridylmethoxy)phenyl]methyl]anilino]-5-methyl-N-methylsulfonyl-thiazole-4-carboxamide]
EC50 [1]: 0.158 µM
EC50 [2]: > 10 µM

Cc1sc(N(Cc2ccc3c(c2)C(O)CCO3)c2ccc(C#N)cc2)nc1C(=O)NS(C)(=O)=O (stereo not drawn) [Compound 486, 2-[4-cyano-N-[(4-hydroxychroman-6-yl)methyl]anilino]-5-methyl-N-methylsulfonyl-thiazole-4-carboxamide]
EC50 [1]: 0.251 µM
EC50 [2]: 0.251 µM

CS(=O)(=O)NC(=O)c1nc(N(Cc2ccc(Cl)cn2)c2ccc(C#N)cc2)sc1C1CC1 [Compound 658, 2-[N-[(5-chloro-2-pyridyl)methyl]-4-cyano-anilino]-5-cyclopropyl-N-methylsulfonyl-thiazole-4-carboxamide]
EC50 [1]: 0.1 µM
EC50 [2]: 5.01 µM

Cc1oc(N(CC2CCC(F)(F)CC2)c2ccc(C#N)cc2)nc1C(=O)NS(C)(=O)=O [Compound 621, 2-[4-cyano-N-[(4,4-difluorocyclohexyl)methyl]anilino]-5-methyl-N-methylsulfonyl-oxazole-4-carboxamide]
EC50 [1]: > 2 µM
EC50 [2]: > 10 µM

Cc1sc(N(CCc2ccccc2)Cc2ccccc2)nc1C(=O)NS(C)(=O)=O [Example 294, 2-[benzyl(2-phenylethyl)amino]-5-methyl-N-methylsulfonyl-thiazole-4-carboxamide]
EC50 [1]: 0.1 µM
EC50 [2]: 1 µM

Cc1sc(N(CC2CCCC2)c2ccc(C#N)cc2)nc1C(=O)NS(C)(=O)=O [Compound 19, 2-[4-cyano-N-(cyclopentylmethyl)anilino]-5-methyl-N-methylsulfonyl-thiazole-4-carboxamide]
EC50 [1]: 0.158 µM
EC50 [2]: > 10 µM

Cc1sc(N(Cc2ccc(SC(F)(F)F)cc2)c2ccc(C#N)cc2)nc1C(=O)NS(C)(=O)=O [Compound 113, 2-[4-cyano-N-[[4-(trifluoromethylsulfanyl)phenyl]methyl]anilino]-5-methyl-N-methylsulfonyl-thiazole-4-carboxamide]
EC50 [1]: 0.0251 µM
EC50 [2]: 0.158 µM

COCCCS(=O)(=O)NC(=O)c1nc(N(Cc2cnc(C(F)(F)F)c(Cl)c2)c2ccc(C#N)cc2)sc1C [Compound 531, 2-[N-[[5-chloro-6-(trifluoromethyl)-3-pyridyl]methyl]-4-cyano-anilino]-N-(3-methoxypropylsulfonyl)-5-methyl-thiazole-4-carboxamide]
EC50 [1]: 0.1 µM
EC50 [2]: 1 µM

Cc1sc(N(Cc2ccc(C(F)(F)F)nc2)c2ccc(C#N)cc2)nc1C(=O)NS(C)(=O)=O [Compound 154, 2-[4-cyano-N-[[6-(trifluoromethyl)-3-pyridyl]methyl]anilino]-5-methyl-N-methylsulfonyl-thiazole-4-carboxamide]
EC50 [1]: 0.2 µM
EC50 [2]: 0.2 µM

CS(=O)(=O)NC(=O)c1nc(N(Cc2ccccc2F)c2ccc(C#N)cc2)sc1Br [Example 242, 5-bromo-2-[4-cyano-N-[(2-fluorophenyl)methyl]anilino]-N-methylsulfonyl-thiazole-4-carboxamide]
EC50 [1]: 0.0631 µM
EC50 [2]: 0.1 µM

Cc1sc(N(CCC2CCCCC2)Cc2ccc(OC(F)(F)F)cc2)nc1C(=O)NS(C)(=O)=O [Compound 732, 2-[2-cyclohexylethyl-[[4-(trifluoromethoxy)phenyl]methyl]amino]-5-methyl-N-methylsulfonyl-thiazole-4-carboxamide]
EC50 [1]: 0.1 µM
EC50 [2]: > 10 µM

Cc1sc(N(CCc2ccc(Cl)cc2)CC[C@H]2CCCC[C@@H]2O)nc1C(=O)NS(C)(=O)=O (racemic) [Compound 146, 2-[2-(4-chlorophenyl)ethyl-[2-[trans-2-hydroxycyclohexyl]ethyl]amino]-5-methyl-N-methylsulfonyl-thiazole-4-carboxamide]
EC50 [1]: 0.0501 µM
EC50 [2]: 0.794 µM

Cc1sc(N(Cc2ccc(C(F)F)cc2F)c2ccc(C#N)cc2)nc1C(=O)NS(C)(=O)=O [Compound 156, 2-[4-cyano-N-[[4-(difluoromethyl)-2-fluoro-phenyl]methyl]anilino]-5-methyl-N-methylsulfonyl-thiazole-4-carboxamide]
EC50 [1]: 0.0398 µM
EC50 [2]: 0.0631 µM

Cc1sc(N(Cc2ccccc2)c2ccc3ccccc3c2)nc1C(=O)NS(C)(=O)=O [Example 232, 2-[benzyl(2-naphthyl)amino]-5-methyl-N-methylsulfonyl-thiazole-4-carboxamide]
EC50 [1]: 0.2 µM
EC50 [2]: > 10 µM

Cc1sc(N(Cc2cc(F)cc(OC(F)F)c2)c2ccc(C#N)cc2)nc1C(=O)NS(C)(=O)=O [Compound 518, 2-[4-cyano-N-[[3-(difluoromethoxy)-5-fluoro-phenyl]methyl]anilino]-5-methyl-N-methylsulfonyl-thiazole-4-carboxamide]
EC50 [1]: 0.0251 µM
EC50 [2]: 0.0398 µM

Cc1sc(N(Cc2ccc(OC(F)F)nc2)c2ccc(C#N)cc2)nc1C(=O)NS(C)(=O)=O [Compound 524, 2-[4-cyano-N-[[6-(difluoromethoxy)-3-pyridyl]methyl]anilino]-5-methyl-N-methylsulfonyl-thiazole-4-carboxamide]
EC50 [1]: 0.0398 µM
EC50 [2]: 0.501 µM

COCCCS(=O)(=O)NC(=O)c1nc(N(Cc2ccccc2)c2ccc(C#N)cc2)sc1C1CC1 [Compound 664, 2-(N-benzyl-4-cyano-anilino)-5-cyclopropyl-N-(3-methoxypropylsulfonyl)thiazole-4-carboxamide]
EC50 [1]: 0.158 µM
EC50 [2]: > 10 µM

COCCCS(=O)(=O)NC(=O)c1nc(N(Cc2ccc(Cl)cn2)c2ccc(C#N)cc2)sc1C [Compound 163, 2-[N-[(5-chloro-2-pyridyl)methyl]-4-cyano-anilino]-N-(3-methoxypropylsulfonyl)-5-methyl-thiazole-4-carboxamide]
EC50 [1]: 0.2 µM
EC50 [2]: 0.251 µM

Cc1sc(N(Cc2ccc(OCC(F)(F)F)cc2)c2ccc(C#N)cc2)nc1C(=O)NS(C)(=O)=O [Compound 580, 2-[4-cyano-N-[[4-(2,2,2-trifluoroethoxy)phenyl]methyl]anilino]-5-methyl-N-methylsulfonyl-thiazole-4-carboxamide]
EC50 [1]: 0.0251 µM
EC50 [2]: 0.631 µM

Cc1sc(N(Cc2cnc(C3CC3)s2)c2ccc(C#N)cc2)nc1C(=O)NS(C)(=O)=O [Compound 466, 2-[4-cyano-N-[(2-cyclopropylthiazol-5-yl)methyl]anilino]-5-methyl-N-methylsulfonyl-thiazole-4-carboxamide]
EC50 [1]: 0.1 µM
EC50 [2]: 0.398 µM
